≈ marks a conversion by molar mass, not a printed value. Where “and” joins values, the source holds several entries; their conditions need not be identical. Identical values can stand only once. Like-named read-outs stand apart in the source and are kept apart here.
Tests used:
SARS-CoV-2 3CL^pro = SARS-CoV-2 3CL^pro (Severe acute respiratory syndrome coronavirus 2, UniProt P0DTD1); experiment: biochemical
in vitro [1] = conditions: African green monkey
SARS-CoV-2 Delta strain = experiment: microbe, parasite or virus in culture; type: cell-based
in vitro [2] = conditions: monkey, plasma
in vivo [3] = conditions: male, C57BL/6J, mouse, po
in vivo [4] = conditions: both, cynomolgus monkey
[5] = tested on: human peripheral blood mononuclear cells (PBMCs); experiment: cells; conditions: PBMC
in vitro [6] = conditions: rat, plasma
in vitro [7] = conditions: mouse, plasma
SARS-CoV-2 WIV04 strain = experiment: microbe, parasite or virus in culture; conditions: Severe acute respiratory syndrome coronavirus 2, Vero C1008, read-out: EC50^CP
in vivo [8] = conditions: both, SD, rat
CYP3A4/5 = experiment: in vitro; conditions: human, microsomes
[9] = tested on: Chinese hamster lung (CHL) cells
in vivo [10] = conditions: both, cynomolgus monkey; remark: listed apart in the source
CYP enzymes (all tested) = experiment: in vitro; conditions: human
[11] = tested on: human primary hepatocytes; experiment: cells; conditions: Hepatocyte
[12] = tested on: human peripheral blood mononuclear cells (PBMCs)
[13] = both, SD, rat, in vivo
[14] = tested on: SARS-CoV-2 Omicron strain; experiment: microbe, parasite or virus in culture
[15] = male, C57BL/6J, mouse, in vivo
[16] = male, C57BL/6J, in vivo
in vivo [17] = conditions: both, Sprague-Dawley, rat
[18] = tested on: SARS-CoV-2 Omicron strain
[19] = tested on: human primary hepatocytes; conditions: human
[20] = both, cynomolgus monkey, in vivo
[21] = both, cynomolgus monkey, in vivo; remark: listed apart in the source
[22] = concentration 500.00 nM, read-out: inhibition ratio (%)
[23] = Severe acute respiratory syndrome coronavirus 2, Vero C1008, read-out: EC50 (nM) Mean
[24] = 500.00 nM, read-out: inhibition ratio (%)
[25] = 15.63 nM, read-out: inhibition ratio (%)
[26] = 31.25 nM, read-out: inhibition ratio (%)

## CC(C)(C)NC(=O)N[C@H](C(=O)N1C[C@@H](Sc2ccccc2)C[C@H]1C(=O)N[C@H](C#N)C[C@@H]1CCNC1=O)C(C)(C)C [compound 6]
SARS-CoV-2 3CL^pro; IC50
  IC50: 7210 nM
SARS-CoV-2 3CL^pro; IC50 (nM)
  IC50: 6060 nM and 8400 nM and 7190 nM
SARS-CoV-2 3CL^pro; concentration 3125.00 nM, read-out: inhibition ratio (%)
  inhibition at 3.125 µM: 22.4%
SARS-CoV-2 3CL^pro; concentration 50000.00 nM, read-out: inhibition ratio (%)
  inhibition at 50 µM: 90.5%
SARS-CoV-2 3CL^pro; concentration 100000.00 nM, read-out: inhibition ratio (%)
  inhibition at 100 µM: 97.7%
SARS-CoV-2 3CL^pro; concentration […], read-out: inhibition ratio (%)
  inhibition at 25 µM: 81.8%

## CC(C)(C)NC(=O)N[C@H](C(=O)N1CC2(C[C@H]1C(=O)N[C@H](C#N)C[C@@H]1CCNC1=O)SCCS2)C(C)(C)C [compound 7]
SARS-CoV-2 3CL^pro; concentration 15.63 nM, read-out: inhibition ratio (%)
  inhibition at 0.01563 µM: 28.1%
SARS-CoV-2 3CL^pro; [22]
  inhibition at 0.5 µM: 97.8%
In vitro [1]
  CC50: > 500000 nM
SARS-CoV-2 Delta strain; [23]
  EC50: 30000 nM
SARS-CoV-2 Delta strain; read-out: EC50^CP
  EC50: 220 nM

## CC(C)(C)NC(=O)N[C@H](C(=O)N1C[C@@H]2CCC[C@@H]2[C@H]1C(=O)N[C@H](C#N)C[C@@H]1CCNC1=O)C(C)(C)C [compound 8]
SARS-CoV-2 3CL^pro; IC50
  IC50: 50 nM
SARS-CoV-2 3CL^pro; IC50 (nM)
  IC50: 49.2 nM and 55.8 nM and 45.8 nM
SARS-CoV-2 3CL^pro; concentration 31.25 nM, read-out: inhibition ratio (%)
  inhibition at 0.03125 µM: 37.9%
SARS-CoV-2 3CL^pro; [22]
  inhibition at 0.5 µM: 93.2%

## CC(C)(C)[C@H](NC(=O)C(F)(F)F)C(=O)N1CC2(C[C@H]1C(=O)N[C@H](C#N)C[C@@H]1CCNC1=O)SCCS2 [compound 9, simnotrelvir]
CYP3A
  calculated metabolic contribution of CYP3A: 87%
In vitro [2]
  fraction unbound: 0.193
In vivo [3]
  Cmax: 49300 ng/mL
In vivo [3]; 50 mg/kg
  Cmax: 18500 ng/mL
In vivo [4]; 5 mg/kg
  bioavailability: 41.9%
  half-life: 1.7 h
In vivo [4]; iv, 5 mg/kg
  Vd: 1.5 L/kg
  clearance: 20.7 mL/min/kg
In vivo [4]; po
  AUC(0-inf): 17200 ng·h/mL
  AUC(0-t): 17000 ng·h/mL
  Cmax: 2440 ng/mL
  half-life: 2.38 h
In vivo [4]; po, 5 mg/kg
  AUC(0-inf): 1790 ng·h/mL
  AUC(0-t): 1660 ng·h/mL
  Cmax: 625 ng/mL
  half-life: 5.63 h
[5]
  IC50: > 150000 nM
In vitro [6]
  fraction unbound: 0.334
In vitro [7]
  fraction unbound: 0.217
SARS-CoV-2 WIV04 strain
  EC50: 26 nM
In vivo [8]; 1000 mg/kg/day
  Cmax: 17000 ng/mL
In vivo [8]; po
  NOAEL: 1000 mg/kg/day
CYP3A4/5
  IC50: 30000 nM
CYP3A4/5; […]
  activity at 0.1 µM: 104%
  activity at 1 µM: 101%
  activity at 3.33 µM: 95.4%
CYP3A4/5; […], 10 μM
  activity at 10 µM: 73.9%
CYP3A4/5; […], 33.3 μM
  activity at 33.3 µM: 46.6%
CYP3A4/5; […], 100 μM
  activity at 100 µM: 21.8%
[9]
  chromosome aberration test (CA) result: negative
In vivo [10]; 600 mg/kg/day
  Cmax: 26400 ng/mL
In vivo [10]; po
  NOAEL: 600 mg/kg/day
CYP enzymes (all tested)
  IC50: ≥ 30000 nM
[11]
  IC50: > 150000 nM
413 human kinases
  inhibition of 413 human kinases: no significant inhibitory activities
[12]
  IC50 or CC50: PBMC: > 150000 nM
  toxicity to human PBMCs: no toxicity was observed
[13]
  tolerability in two-week toxicity study: well tolerated
[14]; Severe acute respiratory syndrome coronavirus 2, Vero C1008
  EC50: 38.7 nM
[14]; Severe acute respiratory syndrome coronavirus 2, Vero C1008, read-out: EC50^CP
  EC50: 43 nM
[15]
  time plasma concentration maintained above EC90^total: 24 h
SARS-CoV-2 Delta strain
  EC90^total: 0.906 µg/mL (≈ 1.65 µM)
SARS-CoV-2 Delta strain; Severe acute respiratory syndrome coronavirus 2, Vero C1008, read-out: EC90^total
  EC90: 0.523 µg/mL
SARS-CoV-2 Delta strain; read-out: EC50^CP
  EC50: 34 nM
SARS-CoV-2 Delta strain; read-out: EC90 (nM), single independent experiment
  EC90: 290 nM and 382 nM
[16]
  exposure in the mouse brains: moderate simnotrelvir exposure
[16]; mouse
  time brain concentration covers EC50^total: > 8 h
  time brain concentration covers EC90^total: more than 2 h
In vivo [17]; 15 mg/kg
  bioavailability: 35.3%
  half-life: 0.45 h
In vivo [17]; iv, 15 mg/kg
  Vd: 1.36 L/kg
  clearance: 59.3 mL/min/kg
In vivo [17]; po
  AUC(0-inf): 9000 ng·h/mL
  AUC(0-t): 8920 ng·h/mL
  Cmax: 2760 ng/mL
  half-life: 1.99 h
In vivo [17]; po, 15 mg/kg
  AUC(0-inf): 1730 ng·h/mL
  AUC(0-t): 1700 ng·h/mL
  Cmax: 1580 ng/mL
  half-life: 1.29 h
[18]
  EC50: 44.9 nM
[19]
  IC50 or CC50: PHHs: > 150000 nM
  toxicity to human hepatocytes: no toxicity was observed
[20]
  increase of AUC0-∞ by ritonavir: 9.6 fold
  increase of Cmax by ritonavir: 3.9 fold
[21]
  tolerability in two-week toxicity study: well tolerated

## CC(C)(C)[C@H](NC(=O)C1(F)CC1)C(=O)N1CC2(C[C@H]1C(=O)N[C@H](C#N)C[C@@H]1CCNC1=O)SCCS2 [compound 10]
SARS-CoV-2 3CL^pro; [24]
  inhibition at 0.5 µM: 94%
In vitro [1]
  CC50: > 500000 nM
SARS-CoV-2 Delta strain; [23]
  EC50: 1100 nM

## CC(C)(C)[C@H](NS(C)(=O)=O)C(=O)N1CC2(C[C@H]1C(=O)N[C@H](C#N)C[C@@H]1CCNC1=O)SCCS2 [compound 11]
SARS-CoV-2 3CL^pro; [25]
  inhibition at 0.01563 µM: 54%
SARS-CoV-2 3CL^pro; [26]
  inhibition at 0.03125 µM: 73.9%
SARS-CoV-2 3CL^pro; [24]
  inhibition at 0.5 µM: 94.6%
In vitro [1]
  CC50: > 500000 nM
SARS-CoV-2 Delta strain; [23]
  EC50: 10400 nM

## CC(C)(C)[C@H](NS(=O)(=O)C1CC1)C(=O)N1CC2(C[C@H]1C(=O)N[C@H](C#N)C[C@@H]1CCNC1=O)SCCS2 [compound 12]
SARS-CoV-2 3CL^pro; [25]
  inhibition at 0.01563 µM: 72.8%
SARS-CoV-2 3CL^pro; [26]
  inhibition at 0.03125 µM: 86.6%
SARS-CoV-2 3CL^pro; [24]
  inhibition at 0.5 µM: 97.9%
In vitro [1]
  CC50: > 500000 nM
SARS-CoV-2 Delta strain; [23]
  EC50: 10700 nM

## CC(C)(C)[C@H](NC(=O)C(F)(F)F)C(=O)N1C[C@H]2[C@@H]([C@H]1C(=O)N[C@H](C#N)C[C@@H]1CCNC1=O)C2(C)C [nirmatrelvir, reference compound]
SARS-CoV-2 Delta strain; read-out: EC50^CP
  EC50: 30 nM

From publication PMC10575921 (Nature Communications, 2023)
